{"source": "patent US20170042869A1", "about": "“Methods for limiting acute kidney injury” (VANDERBILT UNIVERSITY, priority 2014, published 2017)", "format_in_all_cases": "in vivo", "key": {"[1]": {"test_system": "ischemia-reperfusion model of AKI in mice (IR-AKI)", "assay": "IR-AKI mice, pyridoxamine pre-treatment, renal fibrosis and injury markers 28 days after injury", "details": "day 28 after injury", "procedure": "FIG. 1. Dose dependent effects of pre-treatment with pyridoxamine (PYR) at 500 and 1000 mg/kg/day on renal fibrosis 28 days after I/R-AKI. (A) Experimental model. Mice underwent unilateral renal pedicle clamping (U-IR) followed by contralateral nephrectomy 8 days after the initial surgery. All mice were pre-treated for 3 days with either vehicle control, or PYR 500 and 1000 mg/kg/day in drinking water supplemented with 200 mg PYR twice a day (or vehicle) by oral gavage for 3 days after each surgical procedure.\n(§1) Treatment was continued for 28 days at which point mice were sacrificed and kidney harvested for analysis. (B-D) Expression of renal fibrosis markers Col1α1, α-SMA and Col3α1 mRNA relative to Gapdh mRNA control. (E) Quantification of Sirius red stained (% total area). (F) Representative images for Sirius red stained tissues (outer medulla; scale bars, 50 μm). Results expressed as mean +/−SEM, n=9-10 mice per group. Results only indicated if ANOVA p<0.05: *p<0.05, **p<0.01, ***p<0.001, #p<0.0001. Comparison with uninjured controls (no brackets), or vehicle treated mice (brackets).\nFIG. 2. Dose dependent effects of pre-treatment with PYR at 500 and 1000 mg/kg/day on markers of renal injury 28 days after UR-AM. Effect of PYR on Kim1 (A) and NGAL (B) mRNA on day 28 after injury. Results expressed as mean +/−SEM, n=9-10 mice per group. Results only indicated if ANOVA p<0.05: *p<0.05, **p<0.01, ***p<0.001, #p<0.0001. Comparison with uninjured controls (no brackets), or vehicle treated mice (brackets).\n(§2) Two doses of pyridoxamine were administered orally, 500 mg/kg/day and 1000 mg/kg/day to an experimental model of AM, the surgical, ischemia-reperfusion model of AKI in mice (IR-AKI) [Cianciolo Cosentino et al, 2013; Skrypnyk et al, 2013], a model of renal ischemia that has been used extensively to model ischemic injury associated with cardiac surgery acquired (CSA-AKI) [Thiele et al, 2015]. For the bulk of the studies pyridoxamine was administered for 3 days prior to the induction of AKI and was continued until completion of the studies. In some experiments, pyridoxamine was administered 24 hours after the induction of AM.\nThe injury models and treatments were administered as illustrated in FIG. 1A. Mice underwent unilateral renal pedicle clamping (LT-IR) followed by contralateral nephrectomy 8 days after the initial surgery. All mice were pre-treated for 3 days with either vehicle control, or PYR 500 and 1000 mg/kg/day in drinking water supplemented with 200 mg PYR twice a day (or vehicle) by oral gavage for 3 days after each surgical procedure. Treatment was continued for 28 days at which point mice were sacrificed and kidneys harvested for analysis."}, "[2]": {"test_system": "ischemia-reperfusion model of AKI in mice (IR-AKI)", "assay": "IR-AKI mice, pyridoxamine pre-treatment, renal injury and oxidative stress 3 days after injury", "details": "pre-treatment 1000 mg/kg/day, day 3 after injury, vs vehicle", "procedure": "FIG. 5. Dose dependent effect of pre-treatment with PYR at 500 and 1000 mg/kg/day on renal injury 3 days after I/R-AKI. (A) Experimental model, Mice underwent U-IR and were pre-treated for 3 days with either vehicle control, PYR 500 mg/kg/day or PYR 1000 mg/kg/day in drinking water supplemented with 200 mg PYR twice a day (or vehicle) by oral gavage for 3 days after the surgical procedure. Mice were sacrificed and kidney harvested for analysis 3 days after the initial injury. (B, C) Renal Kim1 and NGAL mRNA expression 3 days after injury expressed as the ratio to Gapdh mRNA control. (D) Tubular injury score 3 days after injury in the OM (0-4, arbitrary units). (E) Representative images for PAS stained tissues (outer medulla; scale bars, 50 μm) F) Expression renal isofuran/isoprostane ratios after\nPYR treatment with 500 and 1000 mg/kg/day 3 days after LI-IR. Results expressed as mean +/−SEM, n=9-10 mice per group. Results only indicated if ANOVA p<0.05: *p<0.05, **p<0.01, ***p<0.001, #p<0.0001. Comparison with uninjured (no brackets), or vehicle or PYR 500 mg/kalday treated mice (brackets).\nas §2\nTo determine whether there was also a dose-dependent effect of pyridoxamine at 500 and 1000 mg/kg/day on early renal injury after IR-AKI, mice were sacrificed on day 3 after injury (FIG. 5A) to evaluate renal injury and renal oxidative stress levels."}, "[3]": {"test_system": "ischemia-reperfusion model of AKI in mice (IR-AKI)", "assay": "IR-AKI mice, pyridoxamine treatment started 24 hours after injury, renal fibrosis and injury markers at 28 days", "details": "1000 mg/kg/day started 24 hours after injury, day 28", "procedure": "as §1, with “FIG. 3. […] (A) Experimental model. Mice underwent U-IR followed by contralateral nephrectomy 8 days after the initial surgery. Mice were treated with PYR 1000 mg/kg/day starting 24 hours after the initial injury supplemented with 200 mg PYR twice a day (or vehicle) by oral gavage for 3 days after each surgical procedure. Treatment” for “Treatment”, “n=8-10/group.” for “n=9-10 mice per group.”, “Results” for “Results only”, “uninjured” for “uninjured controls”, “or delayed PYR treatment” for “treated mice”\nFIG. 4. No effects of treatment with PYR at 1000 mg/kg/day started 24 hours after injury on markers of renal injury 28 days after I/R-AKI. (A, B) Expression of renal injury markers Kim1 and NGAL mRNA relative to Gapdh mRNA control on day 28 after injury. Results expressed as mean +/−SEM, n=8-10/group. Results indicated if ANOVA p<0.05: *p<0.05, **p<0.01, ***p<0.001, #p<0.0001. Comparison with uninjured (no brackets), or vehicle or delayed PYR treatment (brackets).\nas §2\nTo determine whether delayed treatment with the high dose of pyridoxamine was effective in reducing post-injury fibrosis after IR-AKI, mice were treated with PYR 1000 mg/kg/day starting 24 hours after the initial injury supplemented with 200 mg PYR twice a day (or vehicle) by oral gavage for 3 days after each surgical procedure. Treatment was continued for 28 days at which point mice were sacrificed and kidney harvested for analysis (FIG. 3A)."}, "[4]": {"assay": "Plasma pyridoxamine levels after I/R-AKI", "details": "mice with IR-AKI; for average pyridoxamine plasma levels: 1000 mg/kg/day", "procedure": "FIG. 6. Plasma PYR levels after I/R-AKI. (A) Mice underwent U-IR and were pre-treated for 3 days with vehicle control, PYR 500 mg/kg/day or PYR 1000 mg/kg/day in drinking water supplemented with 200 mg PYR twice a day (or vehicle) by oral gavage for 3 days after the surgical procedure. Evaluation of PYR plasma levels on Day 3 after injury. (B) Mice underwent U-IR followed by contralateral nephrectomy 8 days after the initial surgery. All mice were pre-treated with vehicle control, PYR 500 mg/kg/day or 1000 mg/kg/day in drinking water supplemented with 200 mg PYR twice a day (or vehicle) by oral gavage for 3 days after each surgical procedure. Treatment was continued for 28 days at which point mice underwent venesection for analysis of plasma PYR levels. Evaluation of PYR plasma levels on Day 28 after injury. Results expressed as mean +/−SEM, n=9-10 mice per group. Results only indicated if ANOVA p<0.05: *p<0.05, **p<0.01, ***p<0.001, #p<0.0001. Comparison with uninjured controls (no brackets), or vehicle or PYR 500 mg/kg/day treated mice (brackets)."}, "[5]": {"details": "pre-treatment 500 and 1000 mg/kg/day oral, kidney, vs vehicle"}}}
{"compound": "Cc1ncc(CO)c(CN)c1O", "note": "[pyridoxamine]", "values": [{"measurement": "expression of pro-fibrotic gene Col1α1 mRNA", "setting": "[1]; [5]", "result": "lowered expression"}, {"measurement": "expression of pro-fibrotic gene Col3α1 mRNA", "setting": "[1]; [5]", "result": "lowered expression"}, {"measurement": "expression of pro-fibrotic gene αSMA mRNA", "setting": "[1]; [5]", "result": "lowered expression"}, {"measurement": "level of fibrosis (Sirius red staining)", "setting": "[1]; [5]", "result": "decreased level of fibrosis"}, {"measurement": "expression of renal injury marker Kim1", "setting": "[1]; pre-treatment 500 and 1000 mg/kg/day", "result": "lowered expression"}, {"measurement": "histological tubular injury scores", "setting": "[2]; outer medulla", "result": "reduction"}, {"measurement": "renal NGAL mRNA expression", "setting": "[2]", "result": "significant, dose-dependent decrease"}, {"measurement": "renal levels of oxidative stress marker isofuran-to-isoprostane ratio", "setting": "[2]", "result": "reduction"}, {"measurement": "expression of injury marker Kim1", "setting": "[3]", "result": "did not lower expression"}, {"measurement": "expression of injury marker NGAL", "setting": "[3]", "result": "did not lower expression"}, {"measurement": "expression of pro-fibrotic gene Col3α1 mRNA", "setting": "[3]", "result": "lowered expression"}, {"measurement": "expression of pro-fibrotic gene αSMA mRNA", "setting": "[3]", "result": "lowered expression"}, {"measurement": "post-injury fibrosis (Sirius red staining)", "setting": "[3]", "result": "decreased post-injury fibrosis"}, {"measurement": "expression of injury marker Kim1", "setting": "[3]; listed as PYR", "result": "No effects"}, {"measurement": "expression of injury marker NGAL", "setting": "[3]; listed as PYR", "result": "No effects"}, {"measurement": "post-injury fibrosis (Sirius red staining)", "setting": "[3]; listed as PYR", "result": "Beneficial effects"}, {"measurement": "average pyridoxamine plasma levels", "setting": "[4]; day 3", "result": "~6", "unit": "µg/mL"}, {"measurement": "average pyridoxamine plasma levels", "setting": "[4]; day 28", "result": "~6", "unit": "µg/mL"}, {"measurement": "plasma pyridoxamine levels, dose dependence", "setting": "[4]; 500 vs 1000 mg/kg/day, days 3 and 28", "result": "dose-dependent increase"}]}
